One may read the IC50 as the point on the concentration scale where inhibition reaches its midpoint.

Assay [1] concerns the target T1, IDH1 R132H (Homo sapiens, UniProt O75874, R132H).
T1 construct: 6xHis
Put plainly: Biochemical assay for IDH inhibition (NADPH fluorescence), mutant IDH1 R132H. As to conditions: 50 nM IDH1-R132H, 1 hour pre-incubation, in triplet. The method, boiled down: (§1)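 Mutant enzyme (25 nM R132C or 50 nM R132H) was preincubated 1 h at room temperature with compound in pH 7.5 Tris buffer containing 1.33 mM α-KG, and the reaction was then started with NADPH (80 μM solution). NADPH consumption was followed by fluorescence (Ex 340/Em 460 nm) for 15 min. IC50 was derived from background-corrected linear rates relative to vehicle, run in triplicate.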

Assay [2] concerns the target T2, IDH1 R132C (Homo sapiens, UniProt O75874, R132C).
T2 construct: 6xHis
Put plainly: Biochemical assay for IDH inhibition (NADPH fluorescence), mutant IDH1 R132C. The following applies: 25 nM IDH1-R132C, 1 hour pre-incubation, in triplet. In short, it runs like this:
as §1

Assay [3] has as its target T3, IDH (endogenous IDH1 R132C) in HT1080 cell (Homo sapiens, UniProt O75874, R132C).
T3 construct: which harbor endogenous heterozygous IDH1 R132C and R132H mutation respectively and accumulate D-2-HG
Kind of assay: Cell-based assay for IDH inhibition (decrease of D-2-HG) in HT1080 cells. The following applies: human fibrosarcoma cell line HT1080, 16 hours treatment, D-2-HG by LC-MS, in triplet. The method, boiled down:
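HT1080 cells with endogenous IDH1 R132C, grown in DMEM/10% FBS, treated with compound at several concentrations for 16 h. Metabolites extracted in cold 40% methanol/40% acetonitrile and D-2-HG measured by HILIC LC-MS/MS, normalized to glutamate. IC50 from D-2-HG relative to DMSO controls; run in triplicate.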

T2 sequence (O75874 whole entry R132C): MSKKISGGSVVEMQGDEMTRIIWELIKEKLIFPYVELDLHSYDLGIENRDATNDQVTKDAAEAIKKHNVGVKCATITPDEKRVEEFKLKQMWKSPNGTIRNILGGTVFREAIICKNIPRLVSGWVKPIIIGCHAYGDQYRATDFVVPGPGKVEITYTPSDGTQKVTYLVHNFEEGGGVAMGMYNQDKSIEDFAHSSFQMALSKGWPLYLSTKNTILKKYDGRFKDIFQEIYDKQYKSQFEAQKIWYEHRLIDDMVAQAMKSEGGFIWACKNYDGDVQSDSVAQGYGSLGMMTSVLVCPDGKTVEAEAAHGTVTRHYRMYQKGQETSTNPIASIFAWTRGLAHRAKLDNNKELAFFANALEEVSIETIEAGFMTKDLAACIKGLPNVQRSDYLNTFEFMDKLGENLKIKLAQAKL
T1 sequence (O75874 whole entry R132H): as the sequence (O75874 whole entry R132C) above, with C132H counted along it
T3 sequence (O75874 2-414 R132C): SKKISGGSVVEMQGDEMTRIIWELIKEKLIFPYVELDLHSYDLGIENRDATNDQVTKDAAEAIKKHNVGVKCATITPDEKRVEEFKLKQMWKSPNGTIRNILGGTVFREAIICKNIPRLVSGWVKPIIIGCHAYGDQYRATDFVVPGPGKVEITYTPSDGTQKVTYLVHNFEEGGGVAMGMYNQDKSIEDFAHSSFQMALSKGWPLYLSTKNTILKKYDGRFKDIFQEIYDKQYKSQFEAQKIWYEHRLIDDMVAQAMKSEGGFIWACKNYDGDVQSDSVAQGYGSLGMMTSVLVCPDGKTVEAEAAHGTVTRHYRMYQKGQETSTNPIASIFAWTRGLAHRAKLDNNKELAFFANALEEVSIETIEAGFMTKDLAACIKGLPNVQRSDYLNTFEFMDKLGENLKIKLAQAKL

Turning to `CCN1Cc2c(ccnc2N[C@@H](C)c2ccc(C3CCN(C(C)(C)C)CC3)c(F)c2)C1=O` [Compound 36, (S)-4-((1-(4-(1-(tert-butyl)piperidin-4-yl)-3-fluorophenyl)ethyl)amino)-2-ethyl-2,3-dihydro-1H-pyrrolo[3,4-c]pyridin-1-one], the IC50 in assay [1], in assay [2] and in assay [3] was greater than 1000 nM throughout.
Take `C[C@H](Nc1nccc2c1CN(CC(F)F)C2=O)c1ccc(-c2ccnc(C(C)(C)C)c2)c(F)c1` [Compound 37, (S)-4-((1-(4-(2-(tert-butyl)pyridin-4-yl)-3-fluorophenyl)ethyl)amino)-2-(2,2-difluoroethyl)-2,3-dihydro-1H-pyrrolo[3,4-c]pyridin-1-one]: the IC50 in assay [1] lay within 100 to 500 nM; in assay [2], 100 to 500 nM; in assay [3] it was 500 to 1000 nM.
For the compound `C[C@H](Nc1nccc2c1CN(C(CF)CF)C2=O)c1ccc(-c2ccnc(C(C)(C)C)c2)c(F)c1` [Compound 38, (S)-4-((1-(4-(2-(tert-butyl)pyridin-4-yl)-3-fluorophenyl)ethyl)amino)-2-(1,3-difluoropropan-2-yl)-2,3-dihydro-1H-pyrrolo[3,4-c]pyridin-1-one], the results for the concentration for half-maximal inhibition (IC50) in assay [1], in assay [2] and in assay [3] were less than 100 nM, 100 to 500 nM and 500 to 1000 nM, respectively.
On the same counts, the results for `C[C@H](Nc1nccc2c1CN(CC(F)CF)C2=O)c1ccc(-c2ccnc(C(C)(C)C)c2)c(F)c1` (stereo partly drawn) [Compound 39, 4-(((S)-1-(4-(2-(tert-butyl)pyridin-4-yl)-3-fluorophenyl)ethyl)amino)-2-(2,3-difluoropropyl)-2,3-dihydro-1H-pyrrolo[3,4-c]pyridin-1-one] are 100 to 500 nM, greater than 1000 nM and greater than 1000 nM.
The matching figures for `C[C@H](Nc1nccc2c1CN([C@H](C)CF)C2=O)c1ccc(-c2ccnc(C(C)(C)C)c2)c(F)c1` [Compound 40, 4-(((S)-1-(4-(2-(tert-butyl)pyridin-4-yl)-3-fluorophenyl)ethyl)amino)-2-((R)-1-fluoropropan-2-yl)-2,3-dihydro-1H-pyrrolo[3,4-c]pyridin-1-one]: less than 100 nM, 100 to 500 nM and 100 to 500 nM.
On to `CCN1Cc2c(N[C@@H](C)c3ccc(-c4ccc(F)c(C)c4)c(F)c3)ncc(F)c2C1=O` [Compound 41, (S)-4-((1-(2,4′-difluoro-3′-methyl-[1,1′-biphenyl]-4-yl)ethyl)amino)-2-ethyl-7-fluoro-2,3-dihydro-1H-pyrrolo[3,4-c]pyridin-1-one], for which the values for the half-inhibitory concentration (IC50) in assay [1], in assay [2] and in assay [3] were 100 to 500 nM, 500 to 1000 nM and greater than 1000 nM, respectively.
Take `CCN1Cc2c(ccnc2N[C@@H](C)c2ccc(-c3ccnc(C(C)(C)C)c3)c(F)c2F)C1=O` [Compound 42, (S)-4-((1-(4-(2-(tert-butyl)pyridin-4-yl)-2,3-difluorophenyl)ethyl)amino)-2-ethyl-2,3-dihydro-1H-pyrrolo[3,4-c]pyridin-1-one]: the results for the half-inhibitory concentration (IC50) in assay [1], in assay [2] and in assay [3] were less than 100 nM, 100 to 500 nM and 100 to 500 nM, respectively.
As to `CCN1Cc2c(ccnc2N[C@@H](C)c2cc(F)c(-c3ccnc(C(C)(C)C)c3)c(F)c2)C1=O` [Compound 43, (S)-4-((1-(4-(2-(tert-butyl)pyridin-4-yl)-3,5-difluorophenyl)ethyl)amino)-2-ethyl-2,3-dihydro-1H-pyrrolo[3,4-c]pyridin-1-one], the IC50 in assay [1] is less than 100 nM; in assay [2] it was less than 100 nM; in assay [3], 100 to 500 nM.
For `CCN1Cc2c(ccnc2N[C@@H](C)c2cnc(-c3cc(C(C)(C)C)ccn3)c(F)c2)C1=O` [Compound 44, (S)-4-((1-(4′-(tert-butyl)-3-fluoro-[2,2′-bipyridin]-5-yl)ethyl)amino)-2-ethyl-2,3-dihydro-1H-pyrrolo[3,4-c]pyridin-1-one], the IC50 in assay [1] was greater than 1000 nM; in assay [2], greater than 1000 nM; in assay [3], 500 to 1000 nM.

The values are drawn from patent publication US12441725B2, “ISO-citrate dehydrogenase (IDH) inhibitor” (ZHEJIANG METON PHARMACEUTICAL CO., LTD, priority 2019, dated 2025).
